Test results taken from US8178570B2, “Tie-2 modulators and methods of use” (Exelixis, Inc., priority 2003, dated 2012).

The molecules below were run against Tie-2 (Homo sapiens, UniProt Q02763) (assay: Tie-2 tyrosine kinase activity: kinase-dependent ATP consumption (pEY substrate, luciferase/luciferin chemiluminescence) or 33P-ATP incorporation into substrate). Conditions: Tie-2 (human enzyme) inhibition, Table 2, class symbols A-D.
Format: biochemical
Experimental: One measure of inhibition is Ki. […] The Ki for a compound is determined from the IC50 based on three assumptions. First, only one compound molecule binds to the enzyme and there is no cooperativity. […] Third, the enzymatic rate of the enzyme-inhibitor complex is zero. The rate (i.e., compound concentration) data are fitted to the equation:
[formula] where V is the observed rate, Vmax, is the rate of the free enzyme, I0 is the inhibitor concentration, E0 is the enzyme concentration, and Kd is the dissociation constant of the enzyme-inhibitor complex.
Tyrosine kinase activity is determined by 1) measurement of kinase-dependent ATP consumption by in the presence of a generic substrate such as polyglutamine, tyrosine (pEY), by luciferase/luciferin-mediated chemiluminescence or; 2) incorporation of radioactive phosphate derived from ^33P-ATP into a generic substrate which has been absorbed onto the well surface of polystyrene microtiter plates. Phosphorylated substrate products are quantified by scintillation spectrometry.
Inhibition is indicated as IC50 with following key: A=IC50 less than 50 nM, B=IC50 greater than 50 nM, but less than or equal to 1000 nM, C=IC50 greater than 1000 nM, but less than 10,000 nM, and D=IC50 10,000 nM or greater. The abbreviation for human enzyme, Tie-2, is defined as tyrosine kinase with immunoglobulin and EGF repeats.

Chain of Tie-2 (Q02763 23-1124): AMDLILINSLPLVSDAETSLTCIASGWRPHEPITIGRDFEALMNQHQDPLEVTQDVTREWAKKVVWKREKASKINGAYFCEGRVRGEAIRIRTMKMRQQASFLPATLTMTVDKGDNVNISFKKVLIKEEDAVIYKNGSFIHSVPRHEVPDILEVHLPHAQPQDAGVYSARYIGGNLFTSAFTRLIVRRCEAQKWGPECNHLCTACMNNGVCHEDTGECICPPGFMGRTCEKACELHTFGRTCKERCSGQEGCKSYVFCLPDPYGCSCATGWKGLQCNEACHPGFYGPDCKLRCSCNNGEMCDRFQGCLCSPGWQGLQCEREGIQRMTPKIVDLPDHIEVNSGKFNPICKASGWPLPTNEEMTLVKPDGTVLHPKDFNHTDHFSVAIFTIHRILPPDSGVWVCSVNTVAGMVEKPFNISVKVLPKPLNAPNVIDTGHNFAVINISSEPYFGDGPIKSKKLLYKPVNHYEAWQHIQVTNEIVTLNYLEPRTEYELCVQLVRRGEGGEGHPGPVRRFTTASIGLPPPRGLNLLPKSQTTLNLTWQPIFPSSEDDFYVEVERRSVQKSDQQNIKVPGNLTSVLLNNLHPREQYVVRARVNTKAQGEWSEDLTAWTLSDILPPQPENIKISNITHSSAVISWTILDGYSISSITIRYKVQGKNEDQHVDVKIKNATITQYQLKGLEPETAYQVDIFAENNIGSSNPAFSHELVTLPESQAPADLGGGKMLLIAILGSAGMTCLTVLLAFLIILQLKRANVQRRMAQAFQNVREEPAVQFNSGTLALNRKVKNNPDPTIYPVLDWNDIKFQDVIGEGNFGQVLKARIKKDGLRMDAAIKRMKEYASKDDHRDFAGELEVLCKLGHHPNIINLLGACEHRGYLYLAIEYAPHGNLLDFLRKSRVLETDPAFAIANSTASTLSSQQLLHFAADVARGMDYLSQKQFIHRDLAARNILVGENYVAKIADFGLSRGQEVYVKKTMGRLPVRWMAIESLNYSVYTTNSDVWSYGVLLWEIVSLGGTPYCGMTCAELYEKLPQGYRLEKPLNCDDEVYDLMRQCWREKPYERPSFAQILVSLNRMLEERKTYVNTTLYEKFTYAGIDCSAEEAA

Row | IC50 [µM] | SMILES
1 | 1 to 10 | COc1ccc(-c2nc(-c3ccncc3)nn2CCN(C(=O)Nc2cc(C)ccc2C)C2CCCC2)cc1Cl [Entry 139, N-(2-{5-[3-chloro-4-(methyloxy)phenyl]-3-pyridin-4-yl-1H-1,2,4-triazol-1-yl}ethyl)-N-cyclopentyl-N′-(2,5-dimethylphenyl)urea]
2 | ≥ 10 | COc1ccc(-c2nc(-c3ccncc3)nn2CCN(C(=O)Nc2ccc(C#N)cc2)C2CCCC2)cc1Cl [Entry 101, N-(2-{5-[3-chloro-4-(methyloxy)phenyl]-3-pyridin-4-yl-1H-1,2,4-triazol-1-yl}ethyl)-N′-(4-cyanophenyl)-N-cyclopentylurea]
3 | ≥ 10 | COc1ccc(-c2nc(-c3ccncc3)nn2CCN(C(=O)Nc2ccccc2C(F)(F)F)C2CCCC2)cc1Cl [Entry 122, N-(2-{5-[3-chloro-4-(methyloxy)phenyl]-3-pyridin-4-yl-1H-1,2,4-triazol-1-yl}ethyl)-N-cyclopentyl-N′-[2-(trifluoromethyl)phenyl]urea]
4 | ≥ 10 | COc1ccc(-c2nc(-c3ccncc3)nn2CCN(C(=O)Nc2c(C)cccc2C)C2CCCC2)cc1Cl [Entry 123, N-(2-{5-[3-chloro-4-(methyloxy)phenyl]-3-pyridin-4-yl-1H-1,2,4-triazol-1-yl}ethyl)-N-cyclopentyl-N′-(2,6-dimethylphenyl)urea]
5 | 1 to 10 | COc1ccc(-c2nc(-c3ccncc3)nn2CCN(C(=O)N[C@@H]2C[C@H]2c2ccccc2)C2CCCC2)cc1Cl [Entry 82, N-(2-{5-[3-chloro-4-(methyloxy)phenyl]-3-pyridin-4-yl-1H-1,2,4-triazol-1-yl}ethyl)-N-cyclopentyl-N′-[(1R,2S)-2-phenylcyclopropyl]urea]
6 | ≥ 10 | COc1ccc(-c2nc(-c3ccncc3)n(CC(=O)NC3CCCC3)n2)cc1Cl [Entry 5, 2-{3-[3-chloro-4-(methyloxy)phenyl]-5-pyridin-4-yl-1H-1,2,4-triazol-1-yl}-N-cyclopentylacetamide]
7 | 0.05 to 1 | Cc1nc(-c2ccnc(N[C@@H]3CCNC3)c2)nn1CCN(C(=O)Cc1cccc2ccccc12)C1CCCC1 [Entry 182, N-cyclopentyl-N-[2-(5-methyl-3-{2-[(3R)-pyrrolidin-3-ylamino]pyridin-4-yl}-1H-1,2,4-triazol-1-yl)ethyl]-2-naphthalen-1-ylacetamide]
8 | ≥ 10 | CCc1ccc(NC(=O)N(CCn2nc(-c3ccncc3)nc2-c2ccc(OC)c(Cl)c2)C2CCCC2)cc1 [Entry 112, N-(2-{5-[3-chloro-4-(methyloxy)phenyl]-3-pyridin-4-yl-1H-1,2,4-triazol-1-yl}ethyl)-N-cyclopentyl-N′-(4-ethylphenyl)urea]
9 | 1 to 10 | COc1ccc(-c2nc(-c3ccncc3)nn2CCN(C(=O)Nc2ccc(Cl)cc2C(F)(F)F)C2CCCC2)cc1Cl [Entry 97, N-(2-{5-[3-chloro-4-(methyloxy)phenyl]-3-pyridin-4-yl-1H-1,2,4-triazol-1-yl}ethyl)-N′-[4-chloro-2-(trifluoromethyl)phenyl]-N-cyclopentylurea]
10 | < 0.05 | O=C(Cc1cccc2ccccc12)N(CCn1nc(-c2ccncc2)nc1-c1ccco1)C1CCCC1 [Entry 17, N-cyclopentyl-N-[2-(5-furan-2-yl-3-pyridin-4-yl-1H-1,2,4-triazol-1-yl)ethyl]-2-naphthalen-1-ylacetamide]
11 | ≥ 10 | COc1ccc(-c2nc(-c3ccncc3)nn2CCN(C(=O)Nc2ccc(Cl)cc2Cl)C2CCCC2)cc1Cl [Entry 83, N-(2-{5-[3-chloro-4-(methyloxy)phenyl]-3-pyridin-4-yl-1H-1,2,4-triazol-1-yl}ethyl)-N-cyclopentyl-N′-(2,4-dichlorophenyl)urea]
12 | ≥ 10 | COc1ccc(-c2nc(-c3ccncc3)nn2CCN(C(=O)Nc2ccccc2SC)C2CCCC2)cc1Cl [Entry 154, N-(2-{5-[3-chloro-4-(methyloxy)phenyl]-3-pyridin-4-yl-1H-1,2,4-triazol-1-yl}ethyl)-N-cyclopentyl-N′-[2-(methylthio)phenyl]urea]
13 | < 0.05 | O=C(Cc1cccc2ccccc12)N(CCn1nc(-c2ccncc2)nc1C1CCNCC1)C1CCCC1 [Entry 60, N-cyclopentyl-2-naphthalen-1-yl-N-[2-(5-piperidin-4-yl-3-pyridin-4-yl-1H-1,2,4-triazol-1-yl)ethyl]acetamide]
14 | < 0.05 | O=C(Cc1cccc2ccccc12)N(CCn1nc(-c2ccncc2)nc1-c1ccc2c(c1)OCO2)C1CCCC1 [Entry 63, N-{2-[5-(1,3-benzodioxol-5-yl)-3-pyridin-4-yl-1H-1,2,4-triazol-1-yl]ethyl}-N-cyclopentyl-2-naphthalen-1-ylacetamide]
15 | ≥ 10 | CCOC(=O)Cn1nc(-c2ccncc2)nc1-c1cc(Cl)cc(Cl)c1 [Entry 15, ethyl [5-(3,5-dichlorophenyl)-3-pyridin-4-yl-1H-1,2,4-triazol-1-yl]acetate]
16 | 1 to 10 | COc1ccc(-c2nc(-c3ccncc3)nn2CCN(C(=O)Nc2ccc(Cl)cc2C)C2CCCC2)cc1Cl [Entry 150, N-(2-{5-[3-chloro-4-(methyloxy)phenyl]-3-pyridin-4-yl-1H-1,2,4-triazol-1-yl}ethyl)-N′-(4-chloro-2-methylphenyl)-N-cyclopentylurea]
17 | 1 to 10 | O=C(Cc1cccc2ccccc12)N(CCn1nc(-c2ccc3c(c2)OCO3)nc1-c1ccncc1)C1CCCC1 [Entry 64, N-{2-[3-(1,3-benzodioxol-5-yl)-5-pyridin-4-yl-1H-1,2,4-triazol-1-yl]ethyl}-N-cyclopentyl-2-naphthalen-1-ylacetamide]
18 | < 0.05 | Cc1nc(-c2ccncc2)nn1CCN(C(=O)Cc1cccc2ccccc12)C1CCCC1 [Entry 43, N-cyclopentyl-N-[2-(5-methyl-3-pyridin-4-yl-1H-1,2,4,-triazol-1-yl)ethyl]-2-naphthalen-1-ylacetamide]
19 | ≥ 10 | COc1ccc(-c2nc(-c3ccncc3)nn2CCN(C(=O)Nc2cccc(C(F)(F)F)c2)C2CCCC2)cc1Cl [Entry 155, N-(2-{5-[3-chloro-4-(methyloxy)phenyl]-3-pyridin-4-yl-1H-1,2,4-triazol-1-yl}ethyl)-N-cyclopentyl-N′-[3-(trifluoromethyl)phenyl]urea]
20 | < 0.05 | O=C(Cc1cccc2ccccc12)N(CCn1nc(-c2ccncc2)nc1-c1cccc(F)c1)C1CCCC1 [Entry 56, N-cyclopentyl-N-{2-[5-(3-fluorophenyl)-3-pyridin-4-yl-1H-1,2,4-triazol-1-yl]ethyl}-2-naphthalen-1-ylacetamide]
21 | ≥ 10 | CCOC(=O)Cn1nc(-c2cc(Cl)cc(Cl)c2)nc1-c1ccncc1 [Entry 16, ethyl [3-(3,5-dichlorophenyl)-5-pyridin-4-yl-1H-1,2,4-triazol-1-yl]acetate]
22 | ≥ 10 | C=CCNC(=O)N(CCn1nc(-c2ccncc2)nc1-c1ccc(OC)c(Cl)c1)C1CCCC1 [Entry 156, N-(2-{5-[3-chloro-4-(methyloxy)phenyl]-3-pyridin-4-yl-1H-1,2,4-triazol-1-yl}ethyl)-N-cyclopentyl-N′-prop-2-en-1-ylurea]
23 | < 0.05 | CCc1nc(-c2ccncc2)nn1CCN(C(=O)Cc1cccc2ccccc12)C1CCCC1 [Entry 80, N-cyclopentyl-N-[2-(5-ethyl-3-pyridin-4-yl-1H-1,2,4-triazol-1-yl)ethyl]-2-naphthalen-1-ylacetamide]
24 | < 0.05 | Cc1nc(-c2ccnc(N)c2)nn1CCN(C(=O)Cc1cccc2ccccc12)C1CCCC1 [Entry 176, N-{2-[3-(2-aminopyridin-4-yl)-5-methyl-1H-1,2,4-triazol-1-yl]ethyl}-N-cyclopentyl-2-naphthalen-1-ylacetamide]
25 | ≥ 10 | COc1ccc(-c2nc(-c3ccncc3)nn2CCN(C(=O)Cc2ccc3ccccc3c2)C2CCCC2)cc1Cl [Entry 48, N-(2-{5-[3-chloro-4-(methyloxy)phenyl]-3-pyridin-4-yl-1H-1,2,4-triazol-1-yl}ethyl)-N-cyclopentyl-2-naphthalen-2-ylacetamide]
26 | < 0.05 | O=C(Cc1cccc2ccccc12)N(CCn1nc(-c2ccncc2)nc1-c1ccccc1)C1CCCC1 [Entry 50, N-cyclopentyl-2-naphthalen-1-yl-N-[2-(5-phenyl-3-pyridin-4-yl-1H-1,2,4-triazol-1-yl)ethyl]acetamide]
27 | 1 to 10 | O=C(Cc1cccc2ccccc12)N(CCn1nc(-c2cccc(F)c2)nc1-c1ccncc1)C1CCCC1 [Entry 57, N-cyclopentyl-N-{2-[3-(3-fluorophenyl)-5-pyridin-4-yl-1H-1,2,4-triazol-1-yl]ethyl}-2-naphthalen-1-ylacetamide]
28 | 1 to 10 | COc1ccc(-c2nc(-c3ccncc3)nn2CCN(C(=O)NCc2ccccc2)C2CCCC2)cc1Cl [Entry 92, N-(2-{5-[3-chloro-4-(methyloxy)phenyl]-3-pyridin-4-yl-1H-1,2,4-triazol-1-yl}ethyl)-N-cyclopentyl-N′-(phenylmethyl)urea]
29 | ≥ 10 | COc1ccc(-c2nc(-c3ccncc3)nn2CCN(C(=O)Nc2ccccc2F)C2CCCC2)cc1Cl [Entry 115, N-(2-{5-[3-chloro-4-(methyloxy)phenyl]-3-pyridin-4-yl-1H-1,2,4-triazol-1-yl}ethyl)-N-cyclopentyl-N′-(2-fluorophenyl)urea]
30 | ≥ 10 | COc1ccc(-c2nc(-c3ccncc3)nn2CCN(C(=O)Nc2ccc(Cl)cc2)C2CCCC2)cc1Cl [Entry 135, N-(2-{5-[3-chloro-4-(methyloxy)phenyl]-3-pyridin-4-yl-1H-1,2,4-triazol-1-yl}ethyl)-N′-(4-chlorophenyl)-N-cyclopentylurea]
